Patent US7074807B2, “Compositions and methods for inducing cell death” (Georgetown University, priority 1998, dated 2006)

Experiments:
[1] = Apoptosis assay (annexin V-FITC/propidium iodide flow cytometry), serum-free; details: human
Protocol: FIGS. (7A1–7A3), (7B1–7B2), (7C1–7C3), (7D1–7D2), (7E1–7E3), (7F1–7F2). […] Cells were grown in serum-free medium overnight in T-25 flasks and treated with tempol (10 mM) or tempo (10 mM) for various times, trypsinized, and then resuspended in 200 ul 1× binding buffer as described in experimental procedures. The cell suspension was double-stained with annexin V-FITC and propidium iodide and analyzed by flow cytometry. Background signal was determined by comparison with double-stained, single-stained, or unstained control cells. (7A1–7A3), (7C1–7C3), and (7E1–7E3) are cytograms showing a relative distribution of viable (V), apoptotic (A), and necrotic (N) cells at 2 h following tempol or tempo treatment of MDA-MB 231 cells (A), PCI-04A cells (C), and PC-3 cells (E). (7B1–7B3), (7D1–7D2), and (7F1–7F2) are time course analyses of MDA-MB 231 cells (B), PCT-04A cells (D), and PC-3 cells (F). 100,000 cells were analyzed at each time point in triplicate (B) or quadruplicate (D and F). Solid bars, 1% ethanol, striped bars, 10 mM tempol, empty bars, 10 mM tempo. […] Data shown are representative from three to four independent experiments. (7B1–7B2), Time course analysis of MDA-MB 231 cells undergoing apoptosis (annexin V-FITC staining) (7B1), or necrosis (propidium iodide staining) (7B2). Values shown are mean±s.d. of triplicate determinations per time point in each treatment category, and representative of three to four independent experiments. […] (7D1–7D2), Time course analysis of PCI-04A cells undergoing apoptosis (annexin V-FITC staining) (7D1), or necrosis (propidium iodide staining) (7D2). Values shown are mean±s.d. of quadruplicate determinations per time point in each treatment category. […] (7F1–7F2), Time course analysis of PC-3 cells undergoing apoptosis (annexin V-FITC staining) (7F1), or necrosis (propidium iodide staining) (7F2). Values shown are mean±s.d. of quadruplicate determinations per time point in each treatment category. Control/C, cells treated with 1% ethanol for 2 h.
Apoptosis Assay—ApoAlert Annexin V apoptosis detection system (Clontech Lab Inc., Palo Alto, Calif.) was used to measure the relative distribution of apoptotic and necrotic cells. Briefly, cells were seeded at a density of 1×10^6 cells per 25 cm^2 tissue culture flask in medium containing 10% FBS overnight, followed by washing twice in serum-free medium. Cells were maintained overnight in serum-free medium and exposed to tempol (10 mM) or tempo (10 mM) for various times. […] The intensity of the dye uptake by cells was detected using FACStar plus Flow Cytometer (Becton Dickerson, Lincoln Park, N.J.), and data were analyzed using Reproman True Facts software (Seattle, Wash.). […]

[2] = system: SAPK; assay: SAPK tyrosine phosphorylation (anti-SAPK IP, anti-PY immunoblot); type: cell-based, human; details: 10 mM, time course, vs tempol or untreated controls
Protocol: FIGS. 5A, 5B, 5C. Tempo stimulates tyrosine phosphorylation and activity of SAPK. […] 5A. WCLs (1 mg) were immunoprecipitated with agarose-conjugated anti-SAPK antibody, followed by immunoblotting with anti-PY MAb. 5B. In other independent experiments, anti-SAPK immunoprecipitates were first probed with anti-PY MAb (top), and the blot was then reprobed with anti-SAPK antibody (bottom). 5C. […] WCLs were immunoprecipitated with anti-JNK1 antibody, and the JNK1 activity in immunoprecipitates was measured using GST-cJun (˜41 kDa) as a substrate. UT, untreated cells grown overnight in serum-free medium; CONT/Control, cells grown in serum-free medium overnight, and treated with 1% ethanol for 2 h.
Immunoprecipitation and Immunoblotting—Whole cell lysate (1 mg) was immunoprecipitated with the appropriate agarose-conjugated antibody (1 ug/ml of lysis buffer) overnight at 4° C. with constant agitation. For SAPK immunoprecipitation, WCL (1 mg) was immunoprecipitated with anti-SAPK antibody (5 ug/ml) overnight followed by addition of protein A-Agarose (50 ul of 250 ul/ml stock) and incubation for 2 h at 4° C. Immune-complex beads were collected by microcentrifugation at 15,000×g for 5 min followed by three washes with lysis buffer. […] The bands of interest were quantified by ImageQuant software version 3.3 (Molecular Dynamics Personal Densitometer, Sunnyvale, Calif.). […]

Compound | viability at 2 h, 10 mM [1] [%] | level of phosphorylated SAPK (SAPKP) [2]
CC1(C)CC(O)CC(C)(C)N1[O] [tempol, 4-hydroxy-tempo, reference compound] | 95.8 | –
CC1(C)CCCC(C)(C)N1[O] [tempo, 2,2,6,6-tetramethylpiperidine-N-oxyl] | – | significant increase
